One assay relates to RWPE cells. Kind of assay: Modified basement membrane invasion assay in RWPE cells. Conditions: noninvasive RWPE cells treated with 0, 1, or 10 μM; FIG. 4C. The class given is cell-based. The protocol:
(§1) The ADRB2 antagonist ICI 118,551, and agonist Isoproterenol was purchased from Sigma-Aldrich, and used at a working concentration of 1 μM, 10 μM or 100 μM. SAHA was obtained from Biovision Inc, dissolved in DMSO, and used at a working concentration of 1 μM. DZNep was used at 5 μM and cells were treated for 48 hrs before being harvested for RNA isolation.
(§2) Basement membrane matrix invasion assay was essentially performed as previously described (Kleer et al., 2003, supra). Briefly, warm serum free medium was mixed with Matrigel (Fisher Scientific) at 1:3 ratio, 300 μl of this Matrigel mixture was added into the center of each cell well inserts of the Chemicon 24-well plate (Chemicon), and allowed to solidify at room temperature for 1-2 hrs. Cells were trypsinized and resuspended in serum-free medium. Approximately 1×10^5 cells in 300 μl of serum free medium were placed into each insert, the upper chamber, whereas 500 μl of full medium was added to the lower chamber. Cells were treated with corresponding drug for 10 min prior to be placed into invasion chambers. Cells were then grown in the upper chamber for 48 hrs. The non-invading cells inside the insert were removed and the insert were stained for invaded cells on the lower surface of the membrane. The stained cells were then counted using a microscope and images taken.

Assay [1] has as its system RWPE benign prostate epithelial cells. Kind of assay: Immunoblot of EMT biomarkers and cell adhesion molecules in RWPE cells. In kind it is cell-based. Conditions: FIG. 4F. The method, then:
as §1
Cell extracts were separated by SDS-PAGE and blotted onto nitrocelllular membranes, immunoblotted with antibodies and visualized using ECL-plus (Amercham Bioscience). The following antibodies were used: ADRB2 (Abcam), β-tubulin (Santa Cruz), EZH2 (BD Bioscience). The anti-ADRB2 antibody usually gives a major band of predicted size (46.5 kDa). However, some lots of this antibody may give an extra, weaker band about 5 kDa above the predicted band.
Background: In western blotting, separated proteins are transferred to a membrane and probed.

The test system of assay [2] is ADRB2 transcript. The experiment in a line: qRT-PCR of ADRB2 transcript after SAHA time course. The class given is cell-based. Conditions: time course of SAHA treatment; FIG. 3J. The protocol:
For ChIP and qRT-PCR analysis, DU145 cells were treated with 0.5 μM of SAHA for 30 min, 2, 6, 12 and 24 hrs prior to harvest.
(§3) SYBR green qRT-PCR was carried out according to standard protocols in triplicates (Kleer et al., 2003, supra). Samples were normalized to the mRNA level of the house-keeping gene GAPDH or RPL13A.
In general terms: Quantitative PCR measures a nucleic acid by following its amplification.

Assay [3] deals with ADRB2 promoter. Kind of assay: ChIP of endogenous PRC2 complex, 3mH3K27 and acetylated H3 at the ADRB2 promoter. In kind it is cell-based. Conditions: FIG. 3H-I. The protocol:
ChIP was performed according to published protocols with slight modifications (Boyd et al., Proc Natl Acad Sci USA 95, 13887-13892 1998). Briefly, formaldehyde was added directly to the cultured cells to a final concentration of 1%. For metastasis tissues, samples were first chopped into small pieces with a razor blade and transferred into 5-10 ml PBS before adding formaldehyde. Cells were rotated at room temperature for 10 min. The crosslinking was stopped by 1/20V of 2.5M Glycine and the cells were washed with 1×PBS and harvested in 1×PBS with proteinase inhibitors. Metastasis tissue samples were further disaggregated using a tissue homogenizer. The cells were then pelleted and resuspended in cell lysis buffer containing protease inhibitors. After incubation in cell lysis buffer for 10 min, the samples were pelleted, resuspended in nuclei lysis buffer and sonicated to chromatins with an average size of 500 bp. The chromatins were precleared using Salmon sperm DNA/Protein A Agarose-50% flurry and incubated with specific antibodies overnight. […] The next day, the antibody-bound chromatin was pooled down using protein A/agarose, washed extensively, and reverse-crosslinked. Immunoprecipitated DNA and whole cell extract DNA were purified by treatment with RNase A, proteinase K and purified using Qiaquick PCR purification kit (Qiagen, Valencia, Calif.). The purified DNA was used for PCR analysis of enrichment. Purified DNA was blunted and ligated to linkers and amplified by a two-stage ligation-mediated PCR (LM-PCR) protocol (Lee et al., Cell 125, 301-313 2006) to generate enough chromatins for PCR analysis of multiple target genes or for hybridization to promoter arrays. Equal amount of amplified input and ChIP-enriched chromatins were subjected to PCR testing for enrichment of target gene promoters. For ChIP and qRT-PCR analysis, DU145 cells were treated with 0.5 μM of SAHA for 30 min, 2, 6, 12 and 24 hrs prior to harvest.

For assay [4], the system named is ADRB2 promoter. Kind of assay: ChIP of ectopic Myc-EZH2 at the ADRB2 promoter in H16N2 cells. In kind it is cell-based, human. Conditions: H16N2 cells with EZH2 adenovirus; FIG. 3F. The method, then: ChIP was performed according to published protocols with slight modifications (Boyd et al., Proc Natl Acad Sci USA 95, 13887-13892 1998). Briefly, formaldehyde was added directly to the cultured cells to a final concentration of 1%. For metastasis tissues, samples were first chopped into small pieces with a razor blade and transferred into 5-10 ml PBS before adding formaldehyde. Cells were rotated at room temperature for 10 min. The crosslinking was stopped by 1/20V of 2.5M Glycine and the cells were washed with 1×PBS and harvested in 1×PBS with proteinase inhibitors. Metastasis tissue samples were further disaggregated using a tissue homogenizer. The cells were then pelleted and resuspended in cell lysis buffer containing protease inhibitors. After incubation in cell lysis buffer for 10 min, the samples were pelleted, resuspended in nuclei lysis buffer and sonicated to chromatins with an average size of 500 bp. The chromatins were precleared using Salmon sperm DNA/Protein A Agarose-50% flurry and incubated with specific antibodies overnight. Antibodies used in this study include EZH2 (BD Bioscience), EED (Upstate), SUZ12 (Abeam), trimethylated H3K27 (Upstate), Acetyl-H3K27 (Upstate), Myc (Abeam), and IgG control (Santa Cruz). The next day, the antibody-bound chromatin was pooled down using protein A/agarose, washed extensively, and reverse-crosslinked. […]

Another assay relates to RWPE-shADRB2 cells. The experiment in a line: Modified basement membrane invasion assay in RWPE-shADRB2 cells. Conditions: RWPE-shADRB2 cells treated with 0, 10, or 100 μM. In kind it is cell-based. The protocol:
The ADRB2 antagonist ICI 118,551, and agonist Isoproterenol was purchased from Sigma-Aldrich, and used at a working concentration of 1 μM, 10 μM or 100 μM. SAHA was obtained from Biovision Inc, dissolved in DMSO, and used at a working concentration of 1 μM. DZNep was used at 5 μM and cells were treated for 48 hrs before being harvested for RNA isolation. EZH2 adenovirus infection and RNA interference were performed as described (Kleer et al., Proc Natl Acad Sci USA 100, 11606-11611 2003; Varambally et al., Cancer Cell 8, 393-406 2002). RWPE cells with stable ADRB2 knockdown were generated by transfection with ADRB2 shRNA constructs (Open Biosystems, Huntsville, Ala.) and selection with puromycin. DU145 cell lines with stable EZH2 knockdown were generated using EZH2 shRNA expressing constructs (Open Biosystems). Basement membrane matrix invasion assay was essentially performed as previously described (Kleer et al., 2003, supra). Briefly, warm serum free medium was mixed with Matrigel (Fisher Scientific) at 1:3 ratio, 300 μl of this Matrigel mixture was added into the center of each cell well inserts of the Chemicon 24-well plate (Chemicon), and allowed to solidify at room temperature for 1-2 hrs. Cells were trypsinized and resuspended in serum-free medium. […] The stained cells were then counted using a microscope and images taken.

The test system of assay [5] is DU145 prostate cancer cells. Kind of assay: Modified basement membrane invasion assay in DU145 cells. The class given is cell-based. The method, then: as §2, with “The ADRB2 antagonist ICI 118,551, and agonist Isoproterenol was purchased from Sigma-Aldrich, and used at a working concentration of 1 μM, 10 μM or 100 μM. SAHA was obtained from Biovision Inc, dissolved in DMSO, and used at a working concentration of 1 μM. DZNep was used at 5 μM and cells were treated for 48 hrs before being harvested for RNA isolation. Basement” for “Basement”

In assay [6] the test system is DU145 prostate cancer cells. Kind of assay: Murine prostate tumor xenograft model (DU145). In kind it is in vivo. Conditions: nude mice, daily intraperitoneal injection 400 μg/day or 800 ug/day vs PBS; FIG. 5B. The method, then:
All procedures involving mice were approved by the University Committee on Use and Care of Animals of the University of Michigan. Male nude athymic BALB/c nu/nu mice 5-week-old (Charles River Laboratory, Wilmington, Mass.) were used for examining the tumorigenicity. […] To evaluate the role of β-adrenergic signaling in tumor formation, DU145 cell was propagated, and treated with PBS or 10 μM Isoproterenol at 24 hrs prior to harvest. Cells were then harvested and suspended in a 0.1 ml PBS with or without treatment of 10 μM Isoproterenol. A total of 15 mice (n=5 per group) were each implanted with 5×10^6 DU145 cells into the dorsal flank subcutaneously. Treatment started 24 hrs after implantation. Each group was administered daily by intraperitoneal injection with either PBS or Isoproterenol (at 400 μg/day or 800 μg/day). Tumor size was measured every week and tumor volumes were estimated using the formula (n/6)(L×W2), where L=length of tumor and W=width.

For assay [7], the system named is ADRB2 transcript. The experiment in a line: qRT-PCR of ADRB2 transcript after DZNep in breast and prostate cancer cell lines. The class given is cell-based. Conditions: 5 μM, 48 hrs; batch of breast and prostate cancer cell lines; FIG. 3K. The protocol: as §1, §3

“Also recorded” adds a separate entry of the source.

`Cc1ccc(OCC(O)C(C)NC(C)C)c2c1CCC2` (centres unmarked) [ICI 118,551]: the cell invasion entry in the assay with RWPE cells was “leads to increased invasion; also recorded: significantly increased invasion”. In assay [1], the “expression of EMT biomarkers and cell adhesion molecules” value was “regulates the expression of EMT biomarkers and cell adhesion molecules; also recorded: recaptured the expressional changes in RWPE-shADRB2 cells”.

Turning to `O=C(CCCCCCC(=O)Nc1ccccc1)NO` [SAHA], in the assay with ADRB2 transcript [2], the ADRB2 transcript result is “up-regulated; also recorded: upregulation of ADRB2 transcripts”. For the same molecule, in the assay with ADRB2 promoter [3], the “H3K27 trimethylation at the ADRB2 promoter” value is “marked reduction of PRC2 binding and consequent H3K27 trimethylation”; the “acetylated H3 at the ADRB2 promoter” value was “accumulation of acetylated H3”. The “PRC2 binding at the ADRB2 promoter” value in the assay with ADRB2 promoter [3] (endogenous PRC2) was “sensitive to the HDAC inhibitor SAHA; also recorded: marked reduction of PRC2 binding”. Moreover, the “recruitment of Myc-EZH2 to the ADRB2 promoter” value in the assay on ADRB2 promoter [4] is given as “this binding being sensitive to SAHA”.

For `CC(C)NCC(O)c1ccc(O)c(O)c1` (centres unmarked) [Isoproterenol], the cell invasion result was “inhibits cell invasion” in the assay on RWPE-shADRB2 cells; “significantly reduced invasion” in the assay with RWPE-shADRB2 cells (listed as isoproterenol); “inhibits cell invasion” in assay [5] (DU145 cells treated with 0, 10, or 100 μM); “significantly reduced invasion” in [5] (DU145 cells treated with 0, 10, or 100 μM, listed as isoproterenol); “decreased cell invasion” in assay [5] (PCA model system, cell line not given). Also, the xenograft tumor size entry in assay [6] is “significantly (two-sample t-test, p=0.006) smaller tumors”.

`Nc1nccc2c1ncn2C1C=C(CO)C(O)C1O` (centres unmarked) [DZNep]: in the assay on ADRB2 transcript [7], the ADRB2 transcript entry is “Marked up-regulation; also recorded: strong induction (de-repression) of ADRB2 in all cell lines tested”.
